# “And” between values parts separate entries of the source, which are not always exact repeats. Equal entries are not always repeated. Where two headings read alike, the source gives them in different places.
# Key:
# [1] = biological target: α4β2-nAChR (Rattus norvegicus, UniProt P09483+P12390); test: Heteromeric nAChR binding assay, transfected HEK293 membranes, [3H]epibatidine
# [2] = biological target: α7-nAChR (Rattus norvegicus, UniProt Q05941); test: biochemical; type: binding
# [3] = biological target: rat α7-nAChRs (Rattus norvegicus, UniProt Q05941); type: cell-based
# [4] = biological target: α3β2-nAChR (Rattus norvegicus, UniProt P04757+P12390); test: Heteromeric nAChR binding assay, transfected HEK293 membranes, [3H]epibatidine; conditions: stably transfected HEK293 cells, [3H]epibatidine (0.5 nM)
# [5] = biological target: α2β2-nAChR (Rattus norvegicus, UniProt P12389+P12390); test: as above; conditions: stably transfected HEK293 cells, [3H]epibatidine (0.5 nM)
# [6] = biological target: T1, α3β4-nAChR (Rattus norvegicus, UniProt P04757+P12392); test: as above; conditions: stably transfected HEK293 cells, [3H]epibatidine (0.5 nM)
# T1 construct: expressed in transfected cells
# [7] = biological target: T2, α4β4-nAChR (Rattus norvegicus, UniProt P09483+P12392); test: as above; conditions: stably transfected HEK293 cells, [3H]epibatidine (0.5 nM)
# T2 construct: expressed in transfected cells
# [8] = biological target: T3, Human 5-HT3 (Homo sapiens, UniProt P46098); test: 5-HT3(h) binding assay, recombinant HEK293 cells, [3H]GR65630
# T3 sequence (P46098 24-478): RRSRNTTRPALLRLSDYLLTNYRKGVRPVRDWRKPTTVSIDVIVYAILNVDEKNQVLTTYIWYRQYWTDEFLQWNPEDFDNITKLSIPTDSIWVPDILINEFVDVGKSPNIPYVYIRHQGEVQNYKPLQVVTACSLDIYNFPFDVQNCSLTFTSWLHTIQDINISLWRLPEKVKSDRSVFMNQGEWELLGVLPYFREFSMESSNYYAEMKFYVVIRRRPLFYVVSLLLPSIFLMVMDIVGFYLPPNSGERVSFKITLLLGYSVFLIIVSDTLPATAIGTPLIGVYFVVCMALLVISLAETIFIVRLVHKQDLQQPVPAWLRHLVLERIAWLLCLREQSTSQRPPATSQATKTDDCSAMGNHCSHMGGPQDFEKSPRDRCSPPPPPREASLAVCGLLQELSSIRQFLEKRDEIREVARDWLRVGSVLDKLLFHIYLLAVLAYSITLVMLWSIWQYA
# [9] = biological target: T4, α2β4-nAChR (Rattus norvegicus, UniProt P12389+P12392); test: Heteromeric nAChR binding assay, transfected HEK293 membranes, [3H]epibatidine; conditions: stably transfected HEK293 cells, [3H]epibatidine (0.5 nM)
# T4 construct: expressed in transfected cells
# [10] = biological target: rat a7-nAChR (Rattus norvegicus, UniProt Q05941); test: biochemical; type: binding
# [11] = biological target: T5, α7-nAChR (Mus musculus, UniProt P49582); conditions: in vivo
# [12] = biological target: T5, α7-nAChR; set-up: studied in mice, pigs, and non-human primates as potential α7-nAChR probes; host or cells: mouse brain (cortex) in vivo; species or system mice; conditions: in vivo
# [13] = male, human, in vivo
# [14] = 18F-ASEM radiometabolite analysis in mice
# Method: (§1) Baboon arterial blood samples were withdrawn at 5, 10, 20, 30, 60, and 90 min after ^18-FASEM injection, and plasma was analyzed by HPLC. Male CD-1 mice (25-26 g) were injected via the lateral tail veins with 37 MBq of high-specific-activity ^18-FASEM. The mice were killed by cervical dislocation at 2 and 30 min after injection, and a terminal blood sample was obtained.
# [15] = biological target: T5, α7-nAChR; set-up: The brains were rapidly removed and dissected on ice; tissue Charles River Laboratories; host or cells: brain of live male CD-1 mice; species or system CD-1 mice; conditions: in vivo
# [16] = biological target: α7-nAChR (Homo sapiens, UniProt P36544); conditions: in vivo
# [17] = male, CD-1, mouse, in vivo, iv
# Method: as §1
# [18] = type: binding; conditions: read-out: human Ki α7-nAChR
# [19] = 18F-ASEM radiometabolite analysis in baboon; conditions: baboons, 90 min after injection
# Method: as §1
# [20] = tested on: a7-nAChR; conditions: in vivo
# α7-nAChR (Homo sapiens, UniProt P36544), sequence (P36544 23-502): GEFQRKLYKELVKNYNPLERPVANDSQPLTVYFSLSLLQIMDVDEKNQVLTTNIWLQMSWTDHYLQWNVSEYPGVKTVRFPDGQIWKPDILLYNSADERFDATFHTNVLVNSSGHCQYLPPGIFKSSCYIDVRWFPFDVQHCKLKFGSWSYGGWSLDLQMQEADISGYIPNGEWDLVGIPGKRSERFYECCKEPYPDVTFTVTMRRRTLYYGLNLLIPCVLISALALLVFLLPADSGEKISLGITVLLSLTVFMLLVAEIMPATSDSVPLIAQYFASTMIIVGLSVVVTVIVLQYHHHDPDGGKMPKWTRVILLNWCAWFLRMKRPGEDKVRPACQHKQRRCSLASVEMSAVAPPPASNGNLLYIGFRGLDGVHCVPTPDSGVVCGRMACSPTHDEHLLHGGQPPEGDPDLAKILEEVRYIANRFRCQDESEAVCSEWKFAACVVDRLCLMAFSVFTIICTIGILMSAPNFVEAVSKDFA
# α7-nAChR (Rattus norvegicus, UniProt Q05941), sequence (Q05941 23-502): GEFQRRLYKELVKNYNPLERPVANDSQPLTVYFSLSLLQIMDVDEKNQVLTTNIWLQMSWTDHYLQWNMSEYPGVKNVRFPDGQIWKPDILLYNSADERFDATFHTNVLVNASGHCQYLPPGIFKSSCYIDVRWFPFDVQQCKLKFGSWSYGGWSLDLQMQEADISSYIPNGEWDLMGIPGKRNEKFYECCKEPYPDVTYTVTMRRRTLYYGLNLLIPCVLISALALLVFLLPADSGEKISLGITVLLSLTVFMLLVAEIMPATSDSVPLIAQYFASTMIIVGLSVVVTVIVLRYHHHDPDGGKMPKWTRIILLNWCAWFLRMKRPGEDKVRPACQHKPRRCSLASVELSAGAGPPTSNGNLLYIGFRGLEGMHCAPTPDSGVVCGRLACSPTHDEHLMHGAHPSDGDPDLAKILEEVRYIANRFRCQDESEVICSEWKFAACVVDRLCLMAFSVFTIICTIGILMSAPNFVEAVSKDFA
# T5 sequence (P49582 23-502): as the sequence (Q05941 23-502) above, with A402T counted along it
# rat α7-nAChRs, sequence (Q05941 23-502): as the sequence (Q05941 23-502) above
# α4β2-nAChR, sequence (P09483 31-630): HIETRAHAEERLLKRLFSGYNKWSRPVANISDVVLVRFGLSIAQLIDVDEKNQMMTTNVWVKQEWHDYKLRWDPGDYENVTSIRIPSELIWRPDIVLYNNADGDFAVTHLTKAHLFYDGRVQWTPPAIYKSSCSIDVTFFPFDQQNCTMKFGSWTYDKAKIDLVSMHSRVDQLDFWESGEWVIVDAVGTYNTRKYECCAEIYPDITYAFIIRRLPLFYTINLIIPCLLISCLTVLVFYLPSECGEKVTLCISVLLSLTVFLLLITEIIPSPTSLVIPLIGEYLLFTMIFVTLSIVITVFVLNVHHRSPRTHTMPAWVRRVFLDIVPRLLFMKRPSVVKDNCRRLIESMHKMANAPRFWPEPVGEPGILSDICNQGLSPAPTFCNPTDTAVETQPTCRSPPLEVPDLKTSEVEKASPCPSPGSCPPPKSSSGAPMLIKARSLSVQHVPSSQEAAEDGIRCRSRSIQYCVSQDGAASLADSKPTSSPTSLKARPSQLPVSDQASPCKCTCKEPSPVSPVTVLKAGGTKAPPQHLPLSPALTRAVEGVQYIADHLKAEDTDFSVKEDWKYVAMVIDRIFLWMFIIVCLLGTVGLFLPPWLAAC
# α4β2-nAChR, sequence (P12390 25-500): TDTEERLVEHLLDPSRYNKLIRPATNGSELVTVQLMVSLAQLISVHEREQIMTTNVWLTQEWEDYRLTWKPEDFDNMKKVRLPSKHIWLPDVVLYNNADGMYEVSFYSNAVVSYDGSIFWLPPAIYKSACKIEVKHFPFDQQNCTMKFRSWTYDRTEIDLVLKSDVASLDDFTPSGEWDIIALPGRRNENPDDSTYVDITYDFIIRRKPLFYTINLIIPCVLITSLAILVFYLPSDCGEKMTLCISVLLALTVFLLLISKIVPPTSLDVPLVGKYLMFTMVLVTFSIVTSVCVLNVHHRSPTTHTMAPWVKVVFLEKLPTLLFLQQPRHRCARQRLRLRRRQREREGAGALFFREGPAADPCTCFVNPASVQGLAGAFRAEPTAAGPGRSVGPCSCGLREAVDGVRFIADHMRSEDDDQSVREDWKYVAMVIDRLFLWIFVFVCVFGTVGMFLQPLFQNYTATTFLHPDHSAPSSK
# T1 sequence (P04757 26-499): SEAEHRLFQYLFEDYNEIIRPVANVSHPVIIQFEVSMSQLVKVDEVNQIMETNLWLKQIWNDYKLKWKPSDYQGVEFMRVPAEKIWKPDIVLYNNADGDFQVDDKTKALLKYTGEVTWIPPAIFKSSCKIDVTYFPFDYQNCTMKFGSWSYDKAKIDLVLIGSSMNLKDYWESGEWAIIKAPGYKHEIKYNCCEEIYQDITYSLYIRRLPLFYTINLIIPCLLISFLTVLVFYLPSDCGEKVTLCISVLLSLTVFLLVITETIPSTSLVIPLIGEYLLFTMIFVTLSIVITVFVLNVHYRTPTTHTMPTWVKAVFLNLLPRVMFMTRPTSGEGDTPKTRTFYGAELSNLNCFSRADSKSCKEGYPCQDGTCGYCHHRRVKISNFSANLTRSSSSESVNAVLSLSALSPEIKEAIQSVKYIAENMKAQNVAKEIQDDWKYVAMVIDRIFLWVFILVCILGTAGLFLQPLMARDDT
# T1 sequence (P12392 21-495): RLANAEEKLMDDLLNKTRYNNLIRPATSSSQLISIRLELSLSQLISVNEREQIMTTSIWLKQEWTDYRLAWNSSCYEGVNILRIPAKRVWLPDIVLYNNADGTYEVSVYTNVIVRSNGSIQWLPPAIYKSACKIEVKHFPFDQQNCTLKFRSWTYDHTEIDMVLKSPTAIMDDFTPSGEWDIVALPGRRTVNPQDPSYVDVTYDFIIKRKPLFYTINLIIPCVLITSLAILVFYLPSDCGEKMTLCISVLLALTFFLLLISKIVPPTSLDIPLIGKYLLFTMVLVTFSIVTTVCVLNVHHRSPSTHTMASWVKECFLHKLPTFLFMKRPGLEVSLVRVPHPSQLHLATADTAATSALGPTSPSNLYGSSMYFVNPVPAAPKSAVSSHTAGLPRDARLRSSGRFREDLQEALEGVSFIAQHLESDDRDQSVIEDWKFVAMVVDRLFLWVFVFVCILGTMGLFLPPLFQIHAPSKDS
# α3β2-nAChR, sequence (P04757 26-499): as the sequence (P04757 26-499) above
# α3β2-nAChR, sequence (P12390 25-500): as the sequence (P12390 25-500) above
# rat a7-nAChR, sequence (Q05941 23-502): as the sequence (Q05941 23-502) above
# T2 sequence (P09483 31-630): as the sequence (P09483 31-630) above
# T2 sequence (P12392 21-495): as the sequence (P12392 21-495) above
# T4 sequence (P12389 28-511): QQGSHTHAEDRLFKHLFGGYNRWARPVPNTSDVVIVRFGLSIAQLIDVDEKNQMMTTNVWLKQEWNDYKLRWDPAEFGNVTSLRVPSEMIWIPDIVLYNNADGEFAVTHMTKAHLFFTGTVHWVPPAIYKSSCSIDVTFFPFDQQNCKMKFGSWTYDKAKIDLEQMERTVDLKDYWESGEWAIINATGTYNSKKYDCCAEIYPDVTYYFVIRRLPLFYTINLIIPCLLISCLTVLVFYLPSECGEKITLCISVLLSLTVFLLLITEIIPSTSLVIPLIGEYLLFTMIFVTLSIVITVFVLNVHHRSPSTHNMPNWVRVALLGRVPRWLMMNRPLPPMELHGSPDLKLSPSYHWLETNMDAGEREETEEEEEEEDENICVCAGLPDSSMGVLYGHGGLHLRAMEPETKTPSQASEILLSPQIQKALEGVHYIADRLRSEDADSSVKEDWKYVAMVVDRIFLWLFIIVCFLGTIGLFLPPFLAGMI
# T4 sequence (P12392 21-495): as the sequence (P12392 21-495) above
# α2β2-nAChR, sequence (P12389 28-511): as the sequence (P12389 28-511) above
# α2β2-nAChR, sequence (P12390 25-500): as the sequence (P12390 25-500) above
smiles,measurement,setting,value
"O=S1(=O)c2cc(N3CCN4CCC3CC4)ccc2-c2cccc(F)c21 [Compound 7a, 3-(1,4-Diazabicyclo[3.2.2]nonan-4-yl)-6-fluorodibenzo[b,d]thiophene 5,5-Dioxide]",selectivity α7/α4β2,[1],1370
same,Ki,"[1]; stably transfected HEK293 cells, [3H]epibatidine (0.5 nM)",562 nM
same,Ki,[2]; read-out: Ki α7-nAChR,0.37 nM and 0.45 nM
same,Ki,[2]; read-out: Ki α7-nAChR (text),0.4 nM
same,block of acetylcholine activation,[3],nearly completely blocked activation by acetylcholine
same,Ki,[4],1000 nM
same,Ki,[5],> 10 µM
same,Ki,[6],709 nM
same,Ki,[7],1000 nM
same,selectivity α7/5HT3,[8],561
same,Ki,"[8]; Human 5-HT3 recombinant/HEK293 cells, [3H]GR65630 (0.35 nM)",230 nM
same,Ki,[9],4 µM
same,Ki,[10],0.3 nM
same,behavioral / locomotor activity changes,[11],Neither behavioral nor locomotor activity changes were observed
O=S1(=O)c2cc(N3CCN4CCC3CC4)ccc2-c2cccc([18F])c21 [[^18F]7a],regional brain uptake in mutant DISC1 versus control mice,[12],significantly lower in all regions studied
same,time of plasma TAC peak,[13],≤ 1 min
same,parent metabolized,[13]; 0.5 h,52.6±12.9%
same,parent metabolized,[13]; 1.5 h,83.5±9.7%
same,unchanged parent in the mouse blood,[14]; after intravenous administration,approximately 1%
same,combined radiometabolites in the plasma,"[14]; mice, 30 min after injection",approximately 99%
same,Ki,[2]; Ki α7-nAChR (text),0.4 nM
same,"acetylcholine-induced whole-cell current restored, of baseline",[3],60%
same,"Approximate BPND, Coll",[15],8.0 and 8.0 ± 1.6
same,"Approximate BPND, Ctx",[15],5.3 and 5.3 ± 1.2
same,"Approximate BPND, Hipp",[15],5.5 and 5.5 ± 1.7
same,BPND in control mice,[15],8 and 5.3-8.0
same,ratios of tissues to cerebellum,[15]; iv,10
same,binding potential BPND,[16],~1
same,test-retest variability (TRV),[16],10.8±5.1%
same,"VT, lower regions","[16]; male, human",G15 ml/ml
same,"VT, relatively high regions","[16]; male, human",920 ml/ml
same,peak brain uptake,"[16]; male, human",400 %SUV
same,time of peak brain uptake,"[16]; male, human",10 to 15 min
same,unchanged parent in the mouse brain,[17],at least 95%
same,Ki,[18],0.3 nM
same,combined radiometabolites in the plasma,[19],70%
same,Regional BPND ([VT/VND]−1),[20],3.9 to 6.6 and 3.9-6.6
same,nonspecific binding,[20],less than 30%
same,specific binding,[20],80%-90%
same,brain uptake,"[20]; male, baboon (Papio anubis)",500 % standardized uptake value [SUV]
same,lowest observed VT,"[20]; male, baboon (Papio anubis)",14 mL/mL
same,baseline-to-blockade ratio,[11],13
same,specific binding value,[11],94%
